According to patent US12484574B2, “Agent for promoting undifferentiation and cryoprotective agent using aprotic zwitterion” (JAPAN SCIENCE AND TECHNOLOGY AGENCY, priority 2019, dated 2025):
“Also recorded” adds a separate entry of the source.

Key:
Type in all cases: cell-based
[1] = system: human fibroblasts; experiment: Influence on cell cycle (Click-iT Plus EdU cell proliferation assay); conditions: 2% addition; compared with no addition; FIG. 11
Protocol: The cells used were human fibroblasts.
The test groups were 1% addition groups and 2% addition groups of DMSO and HLS (OE2imC3C) vs. a control.
Cell cycle analysis was conducted using Click-iT® Plus EdU cell proliferation assay (Thermo Fisher Scientific Inc.) containing 5-ethynyl-2′-deoxyuridine (EdU) according to the manufacturer's protocol. The cells were incubated in 10 μM EdU for 1 hour, treated with trypsin, then fixed in 4% PFA, and labeled with Alexa Fluor 647 picolyl azide. The cells were stained with 4′,6-diamidino-2-phenylindole (DAPI) and analyzed with BD FACSAria™ III (BD Biosciences).

[2] = system: Human iPS cells; experiment: Undifferentiation-specific gene expression analysis (Nanog, Oct3/4 quantitative PCR); conditions: no addition defined as 1
Protocol: Human iPS cells (RIKEN BRC) were reconstituted on SNL feeder cells (manufactured by Cell Biolabs, Inc.) and cultured in a CO2 incubator (5% CO2, 37° C., wet). On the next day, medium replacement was performed. The medium was replaced with a fresh one every day until 80% confluency. The cells that reached 80% confluency were recovered and subcultured. The subculture method for the cells is as follows: the cells were washed with DPBS(−) (no calcium, no magnesium, Thermo Fisher Scientific Inc.) and then treated with a CTK solution ((0.25% trypsin+1 mg/ml collagenase IV+1 mM CaCl2+20% KSR in DPBS (−))). The CTK solution was removed, and the cells were washed with DPBS(−) twice. […]
Subsequently, the expression levels of undifferentiation-specific genes Nanog and Oct3/4 were measured. […] The expression levels of the undifferentiation markers were quantified by the following method. […]
cDNA was synthesized from the FastLane lysate (RNA) through RT-PCR reaction using QuantiTect Reverse Transcription Kit (manufactured by Qiagen N.V.).
The quantitative PCR of OCT3/4 and NANOG was carried out under conditions of 95° C. for 30 seconds; (95° C. for 5 seconds; 60° C. for 30 seconds)×40; dissociation using SYBR Premix Ex Taq II (Tli RNaseH Plus) (manufactured by Takara Bio Inc.). […]

[3] = system: Human skin fibroblasts; experiment: Cell freezing, rapid freezing method, viable cell count (Example 4)
Protocol: (§1) Human ES cell and human iPS cell cryopreservation solution DAP213 (manufactured by ReproCELL Inc.) • 75% by weight of OE2imC3C/H2O • 50% by weight of OE2imC3C/H2O • 25% by weight of OE2imC3C/H2O
(§2) The cells to be frozen (two types) were centrifugally recovered by trypsin treatment and diluted with Dulbecco's modified Eagle medium (DMEM), and each cell concentration was measured. The types and cell concentrations of the cells are as follows. • Human skin fibroblasts 8.2×10^5 cells/100 μl (N=3) • Mouse fibroblasts C57BL/6-GFP 1.2×10^6 cells/100 μl (N=3)
(§3) Subsequently, the cells of each type were dispensed at 1 ml/tube to 1.5 ml tubes, centrifuged, suspended in 100 μl each of the cryopreservation solutions described above, and immediately thereafter rapidly frozen in liquid nitrogen within 10 to 15 seconds. Then, the cells were preserved for 3 days in a liquid nitrogen tank.
(§4) The cryopreservation vial was rapidly thawed with 1 ml of a medium, and a supernatant was removed by centrifugation. Subsequently, the cells obtained by centrifugation were resuspended in a medium, followed by the measurement of a viable cell count. Then, culture was started in a 6-well plate.
(§5) 24 hours after the start of culture, the viable cell count was measured.

[4] = system: Mouse fibroblasts C57BL/6-GFP; experiment: as above
Protocol: as §1, §2, §3, §4, §5

COCCOCCn1cc[n+](CCCC(=O)[O-])c1 [OE2imC3C]
influence on cell cycle (G0/G1 phase, S phase) [1]: little influence | relative expression levels of Nanog and Oct3/4 ([2]; with SNL feeder cells, 0.4, 1.0 and 2.0% (w/v) in human iPS cell medium, FIG. 1): amplify the undifferentiation markers | relative expression levels of Nanog and Oct3/4 ([2]; without feeder cells, 1.0 and 2.0% (w/v) in SNL-conditioned medium, FIG. 2): amplify the undifferentiation markers | viable cell count after thawing ([3]; 75, 50, 25% by weight in H2O, rapidly frozen in liquid nitrogen, preserved 3 days, FIG. 7): comparable to that of the commercially available cryopreservation solution DAP213; also recorded: a lower concentration (25% by weight) offered a higher survival rate of the cells | viable cell count 24 hours after the start of culture ([3]; rapid freezing method, FIG. 9): reached a high value, albeit being inferior to the commercially available cryopreservation solution DAP213 | viable cell count after thawing ([4]; 75, 50, 25% by weight in H2O, rapidly frozen in liquid nitrogen, preserved 3 days, FIG. 8): comparable to that of the commercially available cryopreservation solution DAP213; also recorded: a lower concentration (25% by weight) offered a higher survival rate of the cells | viable cell count 24 hours after the start of culture ([4]; rapid freezing method, FIG. 10): reached a high value, albeit being inferior to the commercially available cryopreservation solution DAP213
